Legend:
Assay type in all cases: functional
[1] = tested on: NCI-H23; assay: Cytotoxicity against human NCI-H23 cells assessed as cell growth at 0.01 uM after 48 hrs by SRB assay relative to control; conditions: NCI-H23, 48 h, read-out: Activity
[2] = tested on: NCI-H522; assay: Cytotoxicity against human NCI-H522 cells assessed as cell growth at 0.01 uM after 48 hrs by SRB assay relative to control; conditions: NCI-H522, 48 h, read-out: Activity
[3] = tested on: SK-MEL-28; assay: Cytotoxicity against human SK-MEL-28 cells assessed as cell growth at 0.01 uM after 48 hrs by SRB assay relative to control; conditions: SK-MEL-28, 48 h, read-out: Activity
[4] = tested on: OVCAR-5; assay: Cytotoxicity against human OVCAR5 cells assessed as cell growth at 0.01 uM after 48 hrs by SRB assay relative to control; conditions: OVCAR-5, 48 h, read-out: Activity
[5] = tested on: NCI/ADR-RES; assay: Cytotoxicity against human NCI-ADR-RES cells assessed as cell growth at 0.01 uM after 48 hrs by SRB assay relative to control; conditions: read-out: Activity
[6] = tested on: SK-OV-3; assay: Cytotoxicity against human SKOV3 cells assessed as cell growth at 0.01 uM after 48 hrs by SRB assay relative to control; conditions: SK-OV-3, 48 h, read-out: Activity
[7] = tested on: TK-10; assay: Cytotoxicity against human TK10 cells assessed as cell growth at 0.01 uM after 48 hrs by SRB assay relative to control; conditions: TK-10, 48 h, read-out: Activity
[8] = tested on: MCF7; assay: Cytotoxicity against human MCF7 cells assessed as cell growth at 0.01 uM after 48 hrs by SRB assay relative to control; conditions: MCF7, 48 h, read-out: Activity
[9] = tested on: BT-549; assay: Cytotoxicity against human BT549 cells assessed as cell growth at 0.01 uM after 48 hrs by SRB assay relative to control; conditions: BT-549, 48 h, read-out: Activity
[10] = tested on: M14; assay: Cytotoxicity against human M14 cells assessed as cell growth at 0.1 uM after 48 hrs by SRB assay relative to control; conditions: M14, 48 h, read-out: Activity
[11] = tested on: UACC-62; assay: Cytotoxicity against human UACC62 cells assessed as cell growth at 0.1 uM after 48 hrs by SRB assay relative to control; conditions: UACC-62, 48 h, read-out: Activity
[12] = tested on: OVCAR-3; assay: Cytotoxicity against human OVCAR3 cells assessed as cell growth at 0.1 uM after 48 hrs by SRB assay relative to control; conditions: OVCAR-3, 48 h, read-out: Activity
[13] = tested on: SN12C; assay: Cytotoxicity against human SN12C cells assessed as cell growth at 0.1 uM after 48 hrs by SRB assay relative to control; conditions: read-out: Activity
[14] = tested on: SF-268; assay: Cytotoxicity against human SF268 cells assessed as cell growth at 1 uM after 48 hrs by SRB assay relative to control; conditions: SF-268, 48 h, read-out: Activity
[15] = tested on: SF-295; assay: Cytotoxicity against human SF295 cells assessed as cell growth at 1 uM after 48 hrs by SRB assay relative to control; conditions: SF-295, 48 h, read-out: Activity
[16] = tested on: SNB-75; assay: Cytotoxicity against human SNB75 cells assessed as cell growth at 1 uM after 48 hrs by SRB assay relative to control; conditions: SNB-75, 48 h, read-out: Activity
[17] = tested on: Malme-3M; assay: Cytotoxicity against human MALME-3M cells assessed as cell growth at 1 uM after 48 hrs by SRB assay relative to control; conditions: read-out: Activity
[18] = tested on: UACC-62; assay: Cytotoxicity against human UACC62 cells assessed as cell growth at 1 uM after 48 hrs by SRB assay relative to control; conditions: UACC-62, 48 h, read-out: Activity
[19] = tested on: OVCAR-8; assay: Cytotoxicity against human OVCAR8 cells assessed as cell growth at 1 uM after 48 hrs by SRB assay relative to control; conditions: OVCAR-8, 48 h, read-out: Activity
[20] = tested on: NCI/ADR-RES; assay: Cytotoxicity against human NCI-ADR-RES cells assessed as cell growth at 1 uM after 48 hrs by SRB assay relative to control; conditions: read-out: Activity
[21] = tested on: ACHN; assay: Cytotoxicity against human ACHN cells assessed as cell growth at 1 uM after 48 hrs by SRB assay relative to control; conditions: read-out: Activity
[22] = tested on: BT-549; assay: Cytotoxicity against human BT549 cells assessed as cell growth at 1 uM after 48 hrs by SRB assay relative to control; conditions: BT-549, 48 h, read-out: Activity
[23] = tested on: K562; assay: Cytotoxicity against human K562 cells assessed as cell growth at 100 uM after 48 hrs by SRB assay relative to control; conditions: K562, 48 h, read-out: Activity
[24] = tested on: NCI-H226; assay: Cytotoxicity against human NCI-H226 cells assessed as cell growth at 100 uM after 48 hrs by SRB assay relative to control; conditions: NCI-H226, 48 h, read-out: Activity
[25] = tested on: SF-268; assay: Cytotoxicity against human SF268 cells assessed as cell growth at 100 uM after 48 hrs by SRB assay relative to control; conditions: SF-268, 48 h, read-out: Activity
[26] = tested on: SF-295; assay: Cytotoxicity against human SF295 cells assessed as cell growth at 100 uM after 48 hrs by SRB assay relative to control; conditions: SF-295, 48 h, read-out: Activity
[27] = tested on: OVCAR-3; assay: Cytotoxicity against human OVCAR3 cells assessed as cell growth at 100 uM after 48 hrs by SRB assay relative to control; conditions: OVCAR-3, 48 h, read-out: Activity
[28] = tested on: NCI-H23; assay: Cytotoxicity against human NCI-H23 cells after 48 hrs by SRB assay; conditions: NCI-H23, 48 h
[29] = tested on: SF-268; assay: Cytotoxicity against human SF268 cells after 48 hrs by SRB assay; conditions: SF-268, 48 h; for CC50: read-out: LC50 (the source's name)
[30] = tested on: SF-539; assay: Cytotoxicity against human SF539 cells after 48 hrs by SRB assay; conditions: SF-539, 48 h
[31] = tested on: SNB-75; assay: Cytotoxicity against human SNB75 cells after 48 hrs by SRB assay; conditions: SNB-75, 48 h; for CC50: read-out: LC50 (the source's name)
[32] = tested on: UACC-62; assay: Cytotoxicity against human UACC62 cells after 48 hrs by SRB assay; conditions: UACC-62, 48 h
[33] = tested on: 786-0; assay: Cytotoxicity against human 786-O cells after 48 hrs by SRB assay; conditions: 786-0, 48 h
[34] = tested on: SN12C; assay: Cytotoxicity against human SN12C cells after 48 hrs by SRB assay; conditions: for CC50: read-out: LC50 (the source's name)
[35] = tested on: UO-31; assay: Cytotoxicity against human UO31 cells after 48 hrs by SRB assay; conditions: UO-31, 48 h
[36] = tested on: DU-145; assay: Cytotoxicity against human DU145 cells after 48 hrs by SRB assay; conditions: DU-145, 48 h
[37] = tested on: Hs-578T; assay: Cytotoxicity against human Hs 578T cells after 48 hrs by SRB assay

Compound: N#CCCCCCn1cc(C2=C(c3cn(CCCCCC#N)c4ccccc34)C(=O)N(O)C2=O)c2ccccc21
- growth at 0.01 µM [1]: 95%
- growth at 0.01 µM [2]: 89%
- growth at 0.01 µM [3]: 102%
- growth at 0.01 µM [4]: 99%
- growth at 0.01 µM [5]: 100%
- growth at 0.01 µM [6]: 98%
- growth at 0.01 µM [7]: 93%
- growth at 0.01 µM [8]: 91%
- growth at 0.01 µM [9]: 101%
- growth at 0.1 µM [10]: 85%
- growth at 0.1 µM [11]: 94%
- growth at 0.1 µM [12]: 101%
- growth at 0.1 µM [13]: 94%
- growth at 1 µM [14]: 99%
- growth at 1 µM [15]: 96%
- growth at 1 µM [16]: 80%
- growth at 1 µM [17]: 107%
- growth at 1 µM [18]: 87%
- growth at 1 µM [19]: 95%
- growth at 1 µM [20]: 102%
- growth at 1 µM [21]: 88%
- growth at 1 µM [22]: 89%
- growth at 100 µM [23]: 3%
- growth at 100 µM [24]: -8%
- growth at 100 µM [25]: 8%
- growth at 100 µM [26]: -37%
- growth at 100 µM [27]: -34%
- GI50 [28]: 6.09 µM
- LC50 (concentration killing 50% of cells) [28]: > 100 µM
- TGI [28]: > 100 µM
- GI50 [29]: 10.1 µM
- TGI [29]: > 100 µM
- CC50 [29]: > 100 µM
- GI50 [30]: 2.82 µM
- LC50 [30]: > 100 µM
- TGI [30]: 9.42 µM
- GI50 [31]: 2.84 µM
- TGI [31]: 20 µM
- CC50 [31]: > 100 µM
- GI50 [32]: 3.23 µM
- LC50 [32]: 84.4 µM
- TGI [32]: 16 µM
- GI50 [33]: 10.3 µM
- LC50 [33]: > 100 µM
- TGI [33]: > 100 µM
- GI50 [34]: 8.47 µM
- TGI [34]: > 100 µM
- CC50 [34]: > 100 µM
- GI50 [35]: 1.76 µM
- LC50 [35]: > 100 µM
- TGI [35]: 90.1 µM
- GI50 [36]: 27.8 µM
- LC50 (50% lethal concentration) [36]: > 100 µM
- TGI [36]: > 100 µM
- GI50 [37]: 3.97 µM
- LC50 (50% lethal concentration) [37]: > 100 µM
- TGI [37]: > 100 µM

Compound: Cn1cc(C2=C(c3cn(C)c4ncccc34)C(=O)NC2=O)c2ccccc21
- growth at 0.01 µM [1]: 100%
- growth at 0.01 µM [2]: 90%
- growth at 0.01 µM [3]: 97%
- growth at 0.01 µM [4]: 98%
- growth at 0.01 µM [5]: 101%
- growth at 0.01 µM [6]: 104%
- growth at 0.01 µM [7]: 100%
- growth at 0.01 µM [8]: 93%
- growth at 0.01 µM [9]: 110%
- growth at 0.1 µM [10]: 108%
- growth at 0.1 µM [11]: 97%
- growth at 0.1 µM [12]: 111%
- growth at 0.1 µM [13]: 87%
- growth at 1 µM [14]: 101%
- growth at 1 µM [15]: 85%
- growth at 1 µM [16]: 32%
- growth at 1 µM [17]: 110%
- growth at 1 µM [18]: 89%
- growth at 1 µM [19]: 95%
- growth at 1 µM [20]: 91%
- growth at 1 µM [21]: 87%
- growth at 1 µM [22]: 85%
- growth at 100 µM [23]: 2%
- growth at 100 µM [24]: -16%
- growth at 100 µM [25]: -12%
- growth at 100 µM [26]: -20%
- growth at 100 µM [27]: -19%
- GI50 [28]: 4.18 µM
- TGI [28]: 26.7 µM
- GI50 [29]: 4.86 µM
- TGI [29]: 48.4 µM
- CC50 [29]: > 100 µM
- GI50 [30]: 2.09 µM
- TGI [30]: 5.85 µM
- GI50 [31]: 0.291 µM
- TGI [31]: 7.97 µM
- CC50 [31]: 94.6 µM
- GI50 [32]: 4.22 µM
- TGI [32]: 22 µM
- GI50 [33]: 3.59 µM
- TGI [33]: 23.7 µM
- GI50 [34]: 2.31 µM
- TGI [34]: 16.2 µM
- CC50 [34]: > 100 µM
- GI50 [35]: 2.46 µM
- TGI [35]: 25.3 µM
- GI50 [36]: 6.24 µM
- TGI [36]: 36.2 µM
- GI50 [37]: 0.847 µM
- TGI [37]: 4.08 µM
